# Data: patent US20200223826A1, “Glucose-6-Phosphate Dehydrogenase (G6PD)-Modulating Agents And Methods Of Treating G6PD Deficiency” (The Board of Trustees of the Leland Stanford Junior …, priority 2017, published 2020)
# How the values were obtained:
# human erythrocytes = test: Erythrocyte refrigerated storage assay, hemolysis; format: cell-based; details: 672 h, read-out: reduction of hemolysis
# Protocol: De-identified blood samples were obtained from the Stanford Blood Center. Erythrocytes were collected by filtering the samples through a cellulose slurry to remove platelets and leukocytes and then washed with saline. G6PD activity was measured (Beutler E. Red cell metabolism: A manual of biochemical methods (3rd edition). Grune & Stratton (1984)). […] A 5% erythrocyte suspension was pre-incubated with 1-5 μM AG1 at 4° C. overnight, which was followed by treatment with (or without) either 1 mM chloroquine (CQ) or 1 mM diamide for 3-4 hours at 37° C. (for hemolysis assay with chloroquine, the mixture was incubated under light). Then centrifugation at 1,000 rpm for 5 minutes was followed. Hemoglobin release in the supernatant was monitored by measuring absorbance at 540 nm. […] After wash, the samples were lysed with 0.1% Triton X-100 (final concentration), and the florescence was analyzed with excitation/emission at 485/525 nm. GSH measurement was determined using a Cayman glutathione assay kit (Cayman Chemicals, 703002). […] The absorbance was read at 412 nm. For storage assay, a 5% erythrocyte suspension was stored at 4° C. with and without 1 μM AG1, and hemolysis and G6PD activity were monitored every week for 28 days to examine whether AG1 improves preservation of erythrocytes over time. Protein leakage was also examined by measuring the absorbance of the supernatant of samples at 280 nm. […]
# D181A G6PD = biological target: T1, D181A G6PD (Homo sapiens, UniProt P11413, D181A); test: Canton-mimicking mutant: activity and proteolytic stability; format: biochemical
# T1 construct: His (pET-28a) (N, cleaved yes); made in house; host or cells: E. coli C43 (DE3)
# T1 sequence (P11413 whole entry D181A): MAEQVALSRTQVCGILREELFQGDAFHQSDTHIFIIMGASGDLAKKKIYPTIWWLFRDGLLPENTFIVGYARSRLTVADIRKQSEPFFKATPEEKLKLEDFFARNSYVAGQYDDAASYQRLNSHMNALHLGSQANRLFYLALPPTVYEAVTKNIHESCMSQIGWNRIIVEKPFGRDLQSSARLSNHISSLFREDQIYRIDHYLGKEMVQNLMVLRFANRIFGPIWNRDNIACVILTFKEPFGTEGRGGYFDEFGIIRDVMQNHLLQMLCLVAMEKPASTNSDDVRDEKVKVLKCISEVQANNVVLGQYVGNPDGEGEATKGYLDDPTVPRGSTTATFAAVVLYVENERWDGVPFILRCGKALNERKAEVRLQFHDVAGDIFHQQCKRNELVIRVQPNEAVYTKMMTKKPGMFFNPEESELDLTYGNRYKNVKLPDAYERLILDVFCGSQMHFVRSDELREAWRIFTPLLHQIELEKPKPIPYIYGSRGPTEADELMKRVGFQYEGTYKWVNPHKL
# Protocol: (§1) Enzyme activity was measured by monitoring NADPH production, which was coupled with diaphorase converting resazurin to fluorescent resorufin (excitation at 565 nm and emission at 590 nm); fluorescent signal was thus proportional to G6PD activity. Assays were performed at 25° C. and run for 5 minutes in buffer containing 50 mM Tris (pH 7.4), 0.5 mM EDTA, 3.3 mM MgCl2, 1 U/ml diaphorase, 0.1 mM resazurin. 10 ng of recombinant enzymes or 10 μg of cell lysates was used for the assay with 10 μM NADP^+ (Sigma) as cofactor and 100 μM G6P (Sigma) as substrate. Steady-state kinetic parameters were obtained by varying concentrations of NADP^+ (0-10 μM) with a constant concentration of G6P (100 μM) and similarly for G6P (0-100 μM) with a constant concentration of NADP^+ (10 μM) with 10 ng of recombinant enzymes. Data analysis was performed using GraphPad Prism software v.6 (GraphPad Software, La Jolla, Calif. USA). Kinetic parameters were obtained by fitting the data to the Michaelis-Menten equation.
# (§2) 200 ng of recombinant enzymes were incubated with 1 μL of 10 ng/μL chymotrypsin for 1 hour at room temperature. 100 μM of the compound was added to some reaction conditions. The following protein level was examined by Western blot.
# N185A G6PD = biological target: T2, N185A G6PD (Homo sapiens, UniProt P11413, N185A); test: as above; format: biochemical
# T2 construct: His (pET-28a) (N, cleaved yes); made in house; host or cells: E. coli C43 (DE3)
# T2 sequence (P11413 whole entry N185A): as the sequence (P11413 whole entry D181A) above, with A181D, N185A counted along it
# Protocol: as §1, §2
# [1] = system: lymphocytes carrying the Canton variant; test: Glutathione (GSH) measurement in lymphocytes; format: cell-based, human; details: treatment with AG1 for 24 hours
# Protocol: Total glutathione level was measured using a Total Glutathione Quantification Kit (Dojindo), according to the manufacturer's instructions. The assay utilized DTNB (5,5′-dithio-bis-(2-nitrobenzoic acid)) that reacts with glutathione to produce 5-mercapto-2-nitrobenzoic acid, a yellow colored product. Cells were subjected to serum starvation (50-75%) for 48 hours to induce oxidative stress and treated with the compound for 24 hours before measurement. The absorbance was read at 412 nm.
# zebrafish embryos = test: NADPH levels in lysates of pooled zebrafish embryos; format: in vivo; details: lysates of pooled AG1-treated embryos
# Protocol: Embryos were dechorinated with pronase at 24 hours post fertilization (hpf) and treated with 50 μg/ml of chloroquine and/or AG1 by directly adding the compounds to the well. For ROS measurements, embryos were incubated with compounds for 2 hours, and then the ROS detecting reagent (CM-H2DCFDA) was added at a final concentration of 500 ng/ml to the well for a total treatment time of 5 hours. One embryo was placed to each well of a black, opaque 96-well plate. The florescence was analyzed with excitation/emission at 485/525 nm. After ROS assays, embryos at about 32 hpf were pooled and lysed in buffer containing 50 mM Tris (pH 7.4), 150 mM NaCl, 1 mM EDTA, 0.1% NP-40, and protease inhibitor cocktail, which was followed by three cycles of freeze and thawing in liquid nitrogen. The lysate was centrifuged at 14,000 rpm at 4° C. for 15 minutes. Total protein concentration in the supernatants (total lysate) was determined by Bradford method. 50 μg of total lysate was loaded onto 10% SDS-PAGE gels and the protein level was examined by Western blot using anti-G6PD antibody (Abcam (G6PD: AB87230)). 10 μg of total lysate was used for enzymatic assay. 50 μg of the lysate was used to measure NADPH levels using a NADPH quantification kit (Biovision), according to the manufacturer's instructions.
compound,measurement,setting,value
"SCCNCCc1c[nH]c2ccccc12 [AG1, 2-[2-(1H-indol-3-yl)ethylamino]ethanethiol]",reduction of hemolysis at 1 µM,human erythrocytes,12%
same,activity and proteolytic stability,D181A G6PD,increased activity and proteolytic stability
same,activity and proteolytic stability,N185A G6PD,increased activity and proteolytic stability
same,level of GSH,[1],slightly increased
same,NADPH levels,zebrafish embryos,significant increase
